Source: PubChem BioAssay (NCI)
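Cells were grown in 96-well plates and exposed to each compound for 48 hours at five concentrations; endpoints were interpolated linearly between bracketing concentrations, or set to the highest concentration if not reached. GI50: concentration for 50% inhibition of growth. TGI: total growth inhibition.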

How the values were obtained:
Assay in all cases: inhibition of tumour cell growth, NCI panel, 48 h
SNB-19 CNS = test system: SNB-19 CNS
NCI-H522 lung = test system: NCI-H522 lung
LOX IMVI melanoma = test system: LOX IMVI melanoma
SF-539 CNS = test system: SF-539 CNS
BT-549 breast = test system: BT-549 breast
UACC-62 melanoma = test system: UACC-62 melanoma
NCI/ADR-RES ovarian = test system: NCI/ADR-RES ovarian
ACHN renal = test system: ACHN renal
OVCAR-5 ovarian = test system: OVCAR-5 ovarian
CCRF-CEM leukemia = test system: CCRF-CEM leukemia
HT29 colon = test system: HT29 colon
RPMI-8226 leukemia = test system: RPMI-8226 leukemia
HOP-92 NSCLC = test system: HOP-92 NSCLC
MDA-MB-435 = test system: MDA-MB-435
EKVX NSCLC = test system: EKVX NSCLC
SK-MEL-5 melanoma = test system: SK-MEL-5 melanoma
SR leukemia = test system: SR leukemia
MALME-3M melanoma = test system: MALME-3M melanoma
MOLT-4 leukemia = test system: MOLT-4 leukemia
TK-10 renal = test system: TK-10 renal
K-562 leukemia = test system: K-562 leukemia
NCI-H460 lung = test system: NCI-H460 lung
SN12C renal = test system: SN12C renal
SF-268 CNS = test system: SF-268 CNS
MCF7 breast = test system: MCF7 breast
MDA-MB-468 breast = test system: MDA-MB-468 breast
U251 CNS = test system: U251 CNS
UACC-257 melanoma = test system: UACC-257 melanoma
786-0 renal = test system: 786-0 renal
HOP-62 NSCLC = test system: HOP-62 NSCLC
COLO 205 colon = test system: COLO 205 colon
HCT-15 colon = test system: HCT-15 colon
NCI-H226 lung = test system: NCI-H226 lung
HL-60(TB) leukemia = test system: HL-60(TB) leukemia
SNB-75 CNS = test system: SNB-75 CNS
SW-620 colon = test system: SW-620 colon
OVCAR-4 ovarian = test system: OVCAR-4 ovarian
A498 renal = test system: A498 renal
OVCAR-3 ovarian = test system: OVCAR-3 ovarian
RXF 393 renal = test system: RXF 393 renal
A549 NSCLC = test system: A549 NSCLC
HS 578T breast = test system: HS 578T breast
UO-31 renal = test system: UO-31 renal
HCT-116 colon = test system: HCT-116 colon
SK-OV-3 ovarian = test system: SK-OV-3 ovarian
M14 melanoma = test system: M14 melanoma
NCI-H23 lung = test system: NCI-H23 lung
DU-145 prostate = test system: DU-145 prostate
PC-3 prostate = test system: PC-3 prostate
SF-295 CNS = test system: SF-295 CNS
OVCAR-8 ovarian = test system: OVCAR-8 ovarian
SK-MEL-2 melanoma = test system: SK-MEL-2 melanoma
IGROV1 ovarian = test system: IGROV1 ovarian
KM12 colon = test system: KM12 colon
SK-MEL-28 melanoma = test system: SK-MEL-28 melanoma
HCC-2998 colon = test system: HCC-2998 colon
MDA-MB-231 breast = test system: MDA-MB-231 breast
CAKI-1 renal = test system: CAKI-1 renal

`O=C(CNc1nc(-c2ccccc2)cs1)Nc1ccc(Br)cc1` gave a GI50 (SNB-19 CNS) of 1480 nM, a TGI (SNB-19 CNS) of 3080 nM and a GI50 (NCI-H522 lung) of 168 nM. It also gave a TGI (NCI-H522 lung) of 339 nM, a GI50 (LOX IMVI melanoma) of 296 nM and a TGI (LOX IMVI melanoma) of 1290 nM. It also gave a GI50 (SF-539 CNS) of 779 nM, a TGI (SF-539 CNS) of 2020 nM and a GI50 (BT-549 breast) of 498 nM. The TGI (BT-549 breast) was 1680 nM, the GI50 (UACC-62 melanoma) was 903 nM and the TGI (UACC-62 melanoma) was 2320 nM. It also gave a GI50 (NCI/ADR-RES ovarian) of 557 nM, a TGI (NCI/ADR-RES ovarian) of 3680 nM and a GI50 (ACHN renal) of 844 nM. For the same compound, the TGI (ACHN renal) was 2160 nM, the GI50 (OVCAR-5 ovarian) was 1610 nM and the TGI (OVCAR-5 ovarian) was 3020 nM. For the same compound, the GI50 (CCRF-CEM leukemia) was 245 nM, the TGI (CCRF-CEM leukemia) was greater than 100000 nM and the GI50 (HT29 colon) was 752 nM. It also gave a TGI (HT29 colon) of 2160 nM, a GI50 (RPMI-8226 leukemia) of 396 nM and a TGI (RPMI-8226 leukemia) of 1890 nM. For the same compound, the GI50 (HOP-92 NSCLC) was 1400 nM, the TGI (HOP-92 NSCLC) was 3100 nM and the GI50 (MDA-MB-435) was 1020 nM. The TGI (MDA-MB-435) was 2790 nM, the GI50 (EKVX NSCLC) was 1420 nM and the TGI (EKVX NSCLC) was 3030 nM. It also gave a GI50 (SK-MEL-5 melanoma) of 707 nM, a TGI (SK-MEL-5 melanoma) of 1870 nM and a GI50 (SR leukemia) of 470 nM. For the same compound, the TGI (SR leukemia) was greater than 100000 nM, the GI50 (MALME-3M melanoma) was 739 nM and the TGI (MALME-3M melanoma) was 2090 nM. The GI50 (MOLT-4 leukemia) was 424 nM, the GI50 (TK-10 renal) was 1840 nM and the TGI (TK-10 renal) was 3270 nM. The GI50 (K-562 leukemia) was 309 nM, the TGI (K-562 leukemia) was greater than 100000 nM and the GI50 (NCI-H460 lung) was 1430 nM. It also gave a TGI (NCI-H460 lung) of 3420 nM, a GI50 (SN12C renal) of 649 nM and a TGI (SN12C renal) of 1990 nM. For the same compound, the GI50 (SF-268 CNS) was 1720 nM, the TGI (SF-268 CNS) was 7070 nM and the GI50 (MCF7 breast) was 625 nM. The TGI (MCF7 breast) was 1940 nM, the GI50 (MDA-MB-468 breast) was 532 nM and the TGI (MDA-MB-468 breast) was 1180 nM. It also gave a GI50 (U251 CNS) of 525 nM, a TGI (U251 CNS) of 1340 nM and a GI50 (UACC-257 melanoma) of 1410 nM. It also gave a TGI (UACC-257 melanoma) of 3140 nM, a GI50 (786-0 renal) of 798 nM and a TGI (786-0 renal) of 2100 nM. The GI50 (HOP-62 NSCLC) was 1600 nM, the TGI (HOP-62 NSCLC) was 3170 nM and the GI50 (COLO 205 colon) was 1300 nM. It also gave a TGI (COLO 205 colon) of 2840 nM, a GI50 (HCT-15 colon) of 469 nM and a TGI (HCT-15 colon) of 1160 nM. For the same compound, the GI50 (NCI-H226 lung) was 1120 nM, the TGI (NCI-H226 lung) was 3510 nM and the GI50 (HL-60(TB) leukemia) was 1320 nM. For the same compound, the TGI (HL-60(TB) leukemia) was 49200 nM, the GI50 (SNB-75 CNS) was 1130 nM and the TGI (SNB-75 CNS) was 5940 nM. For the same compound, the GI50 (SW-620 colon) was 759 nM, the TGI (SW-620 colon) was 2300 nM and the GI50 (OVCAR-4 ovarian) was 1330 nM. It also gave a TGI (OVCAR-4 ovarian) of 2980 nM, a GI50 (A498 renal) of 3650 nM and a TGI (A498 renal) of 7990 nM. It also gave a GI50 (OVCAR-3 ovarian) of 747 nM, a TGI (OVCAR-3 ovarian) of 1930 nM and a GI50 (RXF 393 renal) of 1150 nM. For the same compound, the TGI (RXF 393 renal) was 2540 nM, the GI50 (A549 NSCLC) was 1660 nM and the TGI (A549 NSCLC) was 3560 nM. The GI50 (HS 578T breast) was 2140 nM, the TGI (HS 578T breast) was 22300 nM and the GI50 (UO-31 renal) was 1050 nM. It also gave a TGI (UO-31 renal) of 2330 nM, a GI50 (HCT-116 colon) of 507 nM and a TGI (HCT-116 colon) of 1660 nM. It also gave a GI50 (SK-OV-3 ovarian) of 1940 nM, a TGI (SK-OV-3 ovarian) of 4750 nM and a GI50 (M14 melanoma) of 875 nM. The TGI (M14 melanoma) was 2490 nM, the GI50 (NCI-H23 lung) was 646 nM and the TGI (NCI-H23 lung) was 1890 nM. The GI50 (DU-145 prostate) was 1600 nM, the TGI (DU-145 prostate) was 3050 nM and the GI50 (PC-3 prostate) was 1240 nM. The TGI (PC-3 prostate) was 3620 nM, the GI50 (SF-295 CNS) was 1480 nM and the TGI (SF-295 CNS) was 4100 nM. For the same compound, the GI50 (OVCAR-8 ovarian) was 1660 nM, the TGI (OVCAR-8 ovarian) was 6070 nM and the GI50 (SK-MEL-2 melanoma) was 1320 nM. It also gave a TGI (SK-MEL-2 melanoma) of 2700 nM, a GI50 (IGROV1 ovarian) of 876 nM and a TGI (IGROV1 ovarian) of 2430 nM. The GI50 (KM12 colon) was 1790 nM, the TGI (KM12 colon) was 5350 nM and the GI50 (SK-MEL-28 melanoma) was 1580 nM. For the same compound, the TGI (SK-MEL-28 melanoma) was 2970 nM, the GI50 (HCC-2998 colon) was 1450 nM and the TGI (HCC-2998 colon) was 2770 nM. The GI50 (MDA-MB-231 breast) was 655 nM, the TGI (MDA-MB-231 breast) was 1970 nM and the GI50 (CAKI-1 renal) was 917 nM. It also gave a TGI (CAKI-1 renal) of 2300 nM.
